Results: ChEMBL document CHEMBL1782045, “Discovery, synthesis, and investigation of the antitumor activity of novel piperazinylpyrimidine derivatives” (Eur J Med Chem, 2011)

Tests used:
[1] = biological target: T1, Hepatocyte growth factor receptor (Homo sapiens, UniProt P08581)
Description: Binding affinity to human unphosphorylated c-MET

[2] = biological target: T1, Hepatocyte growth factor receptor; remark: listed apart in the source
Description: Binding affinity to human phosphorylated c-MET

T1 sequence (P08581 whole entry): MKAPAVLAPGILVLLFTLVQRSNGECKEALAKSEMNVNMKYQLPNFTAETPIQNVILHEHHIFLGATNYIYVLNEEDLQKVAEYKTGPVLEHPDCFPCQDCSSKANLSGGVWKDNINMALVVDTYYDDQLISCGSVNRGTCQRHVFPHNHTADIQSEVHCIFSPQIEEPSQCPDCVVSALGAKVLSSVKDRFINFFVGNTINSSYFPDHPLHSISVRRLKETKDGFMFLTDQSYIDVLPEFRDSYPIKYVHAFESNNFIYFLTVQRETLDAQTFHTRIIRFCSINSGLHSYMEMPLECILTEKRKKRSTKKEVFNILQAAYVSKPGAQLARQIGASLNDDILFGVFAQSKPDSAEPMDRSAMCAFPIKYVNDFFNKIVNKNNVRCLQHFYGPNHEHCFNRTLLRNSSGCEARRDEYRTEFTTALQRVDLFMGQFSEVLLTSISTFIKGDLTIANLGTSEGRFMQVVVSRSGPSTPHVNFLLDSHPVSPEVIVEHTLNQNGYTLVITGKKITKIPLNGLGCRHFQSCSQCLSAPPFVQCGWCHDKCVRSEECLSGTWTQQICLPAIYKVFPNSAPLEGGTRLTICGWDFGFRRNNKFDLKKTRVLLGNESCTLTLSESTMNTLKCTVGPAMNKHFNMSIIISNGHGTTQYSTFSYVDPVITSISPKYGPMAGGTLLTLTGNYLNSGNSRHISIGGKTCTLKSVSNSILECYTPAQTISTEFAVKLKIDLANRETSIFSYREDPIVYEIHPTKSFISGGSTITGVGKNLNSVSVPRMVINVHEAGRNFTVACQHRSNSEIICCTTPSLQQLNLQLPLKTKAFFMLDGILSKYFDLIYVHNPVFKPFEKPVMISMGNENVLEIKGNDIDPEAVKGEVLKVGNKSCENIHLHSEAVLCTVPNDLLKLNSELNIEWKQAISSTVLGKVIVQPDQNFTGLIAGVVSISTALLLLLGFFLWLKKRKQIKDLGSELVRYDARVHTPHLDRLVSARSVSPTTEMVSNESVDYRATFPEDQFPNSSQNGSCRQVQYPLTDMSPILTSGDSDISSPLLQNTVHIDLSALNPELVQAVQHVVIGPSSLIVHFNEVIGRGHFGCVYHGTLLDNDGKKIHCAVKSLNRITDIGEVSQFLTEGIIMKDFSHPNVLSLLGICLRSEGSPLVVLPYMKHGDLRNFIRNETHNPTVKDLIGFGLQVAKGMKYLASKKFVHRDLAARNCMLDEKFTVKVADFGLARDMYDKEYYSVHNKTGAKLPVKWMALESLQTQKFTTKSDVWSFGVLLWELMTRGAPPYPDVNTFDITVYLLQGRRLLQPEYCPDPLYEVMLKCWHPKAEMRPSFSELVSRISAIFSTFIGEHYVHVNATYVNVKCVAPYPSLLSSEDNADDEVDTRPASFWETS

Compound: CN(C[C@@H]1COCCO1)S(=O)(=O)Nc1ccc2ccc3ncc(-c4cnn(C)c4)cc3c(=O)c2c1 [MK-2461]
- Kd [1]: 27.2 nM
- Kd [2]: 4.4 nM
